Series [1] deals with fibrillin-rich microfibrils proximal to the dermal-epidermal junction (DEJ). Put plainly: Patch-test protocol, immunohistochemistry of fibrillin-rich microfibrils in photoaged skin in vivo. The following applies: for Fibrillin expression proximal to the DEJ, Mean (degree of immunostaining): scale 0-4. Further details: species or system human. The text has this:
(§1) It was done by identification of Procollagen-I and Fibrillin upregulation and matrix metalloprotease-1 (MMP-1) down-regulation in Skin In Vivo. Experiments were done following topical Retinoic Acid (RA) treatment for comparative purposes and analysis of the effects of salicyloyl-phytosphingosine and phytosphingosine compared with retinoic acid with respect to the expression of dermal markers in vivo. See: Watson R E B, Craven N M, Kang S, Jones C J P, Kielty C M, Griffiths C E M. A short term screening protocol, using fibrillin-1 as a […] molecule for photoageing repair agents. J Invest Dermatol, 116: 672-678, 2001, for published methodology.
(§2) Five healthy, but clinically photoaged volunteers, were recruited (age range 54-71 years). Test substances were applied separately under standard 6 mm diameter Finn chambers to the extensor aspect of the forearm: these were vehicle base (15 μl/chamber), 0.2% PS-SLC (15 μl/chamber), 0.05% PS-SLC (15 μl/chamber), 0.2% phytosphingosine (15 μl/chamber) and 0.025% all-tans RA (Retin-A® cream, Janssen-Cilag Ltd., 15 μl/chamber). Formulations were applied to clean skin on days 1 and 4 of the assay. All-trans RA was applied to an untreated site on day 4. On day 8, Finn chambers were removed and 3 mm punch biopsies were obtained under 1% lignocaine anaesthesia from each of the test site. Biopsies were embedded in OCT compound (Tissue-Tek®, Miles, Ind., USA) and snap frozen in liquid nitrogen. Biopsy sites were sutured with 1×4/o ethilon and subjects instructed to return between 7-10 days for suture removal. Frozen sections were […] at a thickness of 10 μm (OTF cryostat, Bright Instruments Ltd.) and mounted onto gelatin-coated slides prior to histological analysis. A number of extracellular matrix (ECM) molecules known to be altered in photoaged skin were assayed by immunohistochemistry to detail the potential effects of the novel formulations. The primary marker of outcome was the distribution of fibrillin-rich microfibrils proximal to the dermal-epidermal junction (DEJ). Also assessed was the distribution of procollagen-1 within the dermis.
(§3) Matrix metalloprotease-1 (MMP-1) levels were also assessed. Whilst the fibrillin and procollagen-1 should increase for an antiaging active levels of MMP-1 should decrease for an antiaging active, i.e., increased synthesis of dermal structural proteins together with reduced levels of the proteases that degrade them. For each analysis, the marker was identified in each of three sections (i.e., 3 sections/treatment/volunteer). Sections were optimally fixed. Routinely, following hydration in tris-buffered saline (TBS; 100 mM Tris, 150 mM NaCl), sections were solublised by addition of 0.5% Triton-X100 (10 minutes). Following washing, endogenous peroxidase activity was abolished by incubation with an excess of hydrogen peroxide in methanol (30 minutes). Sections were blocked prior to application of primary antibody (overnight incubation @4° C.). Negative controls were concurrently incubated with either block alone or control serum. Following incubation, sections were stringently washed with TBS prior to application of an appropriate biotinylated secondary antibody. This was further conjugated to the enzyme horseradish peroxidase using a commercially available kit following the manufacturers instructions (ABC Elite System, Vector Laboratory, Peterborough UK). Antibody was localised using Vector SG® as chromogen (10 minute incubation)—washing in TBS quenched this reaction. Sections were counterstained using Nuclear Fast Red and finally dehydrated through serial alcohols, cleared and permanently mounted.
(§4) Sections were randomised, blinded and examined on a Nikon OPTIPHOT microscope (Tokyo, Japan). For assessment of ECM and cornified envelope components, the degree of immunostaining was assessed on a 5 point semi-quantitative scale where 0=no staining and 4=maximal staining. Four sections (including control) were examined per subject per site. […]

Series [2] concerns Matrix metalloprotease-1 (MMP-1). Put plainly: Patch-test protocol, immunohistochemistry of MMP-1 in photoaged skin in vivo. Further details: species or system human. The following applies: for MMP-1 expression, Mean (MMP-1 IHC): N=5.
Excerpt: as §1, §2, §3, §4

Series [3] has as its system pro-collagen I in the papillary dermis. As to the kind of experiment: Patch-test protocol, immunohistochemistry of pro-collagen I in photoaged skin in vivo. The following applies: for Pro-collagen I expression in the papillary dermis, Mean (degree of immunostaining): scale 0-4, N=5. More on the design: species or system human.
Excerpt: as §1, §2, §3, §4

Series [4] is described as follows: Patch-test protocol, erythema at the site of application. The format is in vivo, human. The note with it: occluded patch test on forearm, photoaged volunteers. The protocol: as §2, with “The primary marker of outcome was the distribution of fibrillin-rich microfibrils proximal to the dermal-epidermal junction (DEJ).” left out
The subject of another series is cellulite (thigh). Put plainly: Clinical trial of anticellulite activity by topical application. The following applies: 0.2% formulation of Example 2, two times a day for 2 months, six female subjects. The format is in vivo, human. The text has this:
Six female subjects were selected for a clinical trial of anticellulite activity of salicyloyl-phytoshingosine by topical application.
The scale ranged from 0 to 4, being 0=No cellulite; 1=Small bumps or depressions; 2=Striations and bumps; 3=Pronounced lumpiness of the skin and striations; 4=All of the above plus hard sub-surface nodules. All tested volunteers had cellulite with grades 1 and 2. The subjects were divided in 2 groups of 3 individuals
Group 1 was instructed to apply a formulation described in Example 2 containing 0.2% salicloyl-phytosphingosine on the right thigh and the vehicle formulation without salicyloyl-phytoshingosine in the left thigh Group 2 was instructed to apply the formulations vice versa. The subjects were taught to carry out the application two times a day, at morning and at night for a period of 2 months. Afterwards the cellulite condition was evaluated by comparison of the thigh diameter, the clinical degrading and the subjective improvement.

The mark [5] stands for this setting: 0.2% topical occluded, vs vehicle.
Where [6] appears, read: 0.2% topical under Finn chamber, applied days 1 and 4, biopsy day 8, N=5 photoaged volunteers.
Where [7] appears, read: topical occluded application, concentration not given.
Where [8] appears, read: 0.2% topical under Finn chamber, applied days 1 and 4, biopsy day 8.
Where [9] appears, read: 0.025% (Retin-A cream), applied day 4, biopsy day 8.
Setting [10] is: 0.05% topical under Finn chamber, applied days 1 and 4, biopsy day 8.

Structures are written as SMILES. Marks after values point to notes of the source that are not given here.

Take `CCCCCCCCCCCCCC[C@@H](O)[C@@H](O)[C@@H](N)CO` [PS, phytosphingosine]: the “Fibrillin-1 deposition proximal to the DEJ (in words)” value in series [1] (setting [5]) was “significant induction of fibrillin expression”. Further, the “Fibrillin expression proximal to the DEJ, Mean (degree of immunostaining)” value (“Fibrillin expression proximal to the DEJ” below) in series [1] (setting [6]) is given as 2.0000**. The “Fibrillin-rich microfibrillar network proximal to the DEJ of photoaged skin (study summary, in words)” value in series [1] (setting [7]) is on record as “restores”. Besides, the “MMP-1 levels (in words)” value in series [2] (setting [5]) is reported as “no effect”. Also, the “MMP-1 expression, Mean (MMP-1 IHC)” value in series [2] (setting [8]) came out at 33.23. Also, the “pCI content in the papillary dermis (in words)” value in series [3] (setting [5]) is on record as “significantly increased”. Moreover, in series [3] (setting [8]), the “Pro-collagen I expression in the papillary dermis, Mean (degree of immunostaining)” value (from here on “Pro-collagen I expression”) was 2.5556**. In addition, the “Effects on procollagen I in the papillary dermis (study summary, in words)” value in series [3] (setting [7]) was “beneficial effects”.
`CC1=C(/C=C/C(C)=C/C=C/C(C)=C/C(=O)O)C(C)(C)CCC1` [RA, retinoic acid]: in series [4], the “Erythema at the site of application” value is reported as “marked erythema”. Further, the “Fibrillin expression proximal to the DEJ” value in series [1] (0.025% (Retin-A cream) under Finn chamber, applied day 4, biopsy day 8, N=5) is 2.8625**. For the same compound, the “MMP-1 expression, Mean (MMP-1 IHC)” value in series [2] (setting [9]) amounted to 36.82. Further, the “Expression of MMP-1 (in words)” value in series [2] (0.025% all-trans RA, 4 day occluded application) is “no effect”. In addition, the “Pro-collagen I expression” value in series [3] (setting [9]) is listed as 2.2667.
In the case of `CCCCCCCCCCCCCC[C@@H](O)[C@@H](O)[C@H](CO)NC(=O)c1ccccc1O` [PS-SLC, salicyloyl-phytosphingosine], in the series on cellulite (thigh), the “Clinical grading (cellulite) reduction in comparison with the vehicle treated thigh” value came to 27%. For the same compound, the “Subjective improvement increase in comparison with the vehicle treated thigh” value with cellulite (thigh) came out at 34%. Further, the “Thigh diameter reduction in comparison with the vehicle treated thigh” value in the series on cellulite (thigh) amounted to 4%. For the same compound, the “Fibrillin expression proximal to the DEJ” value in series [1] (0.05% topical under Finn chamber, applied days 1 and 4, biopsy day 8, N=5) is 1.7778**; in series [1] (setting [6]), 2.267*. Also, the “MMP-1 expression, Mean (MMP-1 IHC)” value is recorded as 18.40* in series [2] (setting [10]) and 22.72* in series [2] (setting [8]). Moreover, the results for the “Pro-collagen I expression” value in series [3] (setting [10]) and in series [3] (setting [8]) were 2.2472 and 2.7790*, respectively.
